Legend:
[1] = molecular target: T1, E1 and His-E2 Ubch10 (UBC10) (Homo sapiens, UniProt P22314); assay: ATP competitive assay, 200 μM ATP (high ATP); assay type: biochemical; conditions: conclusion from UBC10 inhibition at 1 μM versus 200 μM ATP
T1 construct: host or cells: E. coli (His-Ubch10); Sf9 insect cells (E1)
T1 sequence (P22314 1-1058): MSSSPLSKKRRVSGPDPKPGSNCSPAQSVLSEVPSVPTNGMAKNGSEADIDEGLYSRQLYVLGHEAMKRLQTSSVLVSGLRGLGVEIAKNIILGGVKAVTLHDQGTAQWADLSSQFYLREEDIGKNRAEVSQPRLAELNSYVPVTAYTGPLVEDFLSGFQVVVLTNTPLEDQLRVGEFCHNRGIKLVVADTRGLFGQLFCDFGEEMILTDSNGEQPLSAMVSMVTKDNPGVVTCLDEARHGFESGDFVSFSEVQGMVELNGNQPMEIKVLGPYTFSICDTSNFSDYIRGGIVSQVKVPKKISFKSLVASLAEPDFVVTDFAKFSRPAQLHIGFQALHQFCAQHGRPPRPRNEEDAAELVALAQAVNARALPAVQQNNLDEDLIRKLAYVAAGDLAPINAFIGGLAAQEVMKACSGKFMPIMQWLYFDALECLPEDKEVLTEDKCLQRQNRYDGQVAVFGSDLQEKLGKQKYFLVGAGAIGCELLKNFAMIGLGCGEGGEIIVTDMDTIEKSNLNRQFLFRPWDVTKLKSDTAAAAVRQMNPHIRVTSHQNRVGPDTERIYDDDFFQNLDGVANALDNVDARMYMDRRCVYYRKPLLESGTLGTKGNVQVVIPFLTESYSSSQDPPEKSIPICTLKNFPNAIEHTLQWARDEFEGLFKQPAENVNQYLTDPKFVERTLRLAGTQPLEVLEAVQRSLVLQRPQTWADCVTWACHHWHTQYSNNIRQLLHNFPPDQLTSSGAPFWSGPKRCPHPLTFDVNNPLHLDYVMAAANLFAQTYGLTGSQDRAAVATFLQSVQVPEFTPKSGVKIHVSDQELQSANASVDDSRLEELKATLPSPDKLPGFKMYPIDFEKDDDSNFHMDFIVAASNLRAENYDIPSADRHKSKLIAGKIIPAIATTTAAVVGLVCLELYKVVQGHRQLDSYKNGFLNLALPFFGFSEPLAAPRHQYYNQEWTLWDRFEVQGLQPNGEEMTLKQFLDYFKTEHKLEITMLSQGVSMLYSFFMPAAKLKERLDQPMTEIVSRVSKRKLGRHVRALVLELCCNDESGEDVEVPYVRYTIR
Procedure: The attachment of a ubiquitin moiety to the E2 conjugating agent was assayed using Flag-ubiquitin that was purified from E. coli, E2 Ubch10 that was purified as a His-Ubch10 from E. coli, and E1 that was purified from Sf9 insect cells (Affiniti Research Products, Exeter, U.K.). The wells of a Nickel-substrate 96-well plate (Pierce Chemical) were blocked with 100 μl of 1% casein/phosphate buffered saline (PBS) for 1 hour at room temperature. The blocked Nickel-substrate plate was then washed three times with 200 μl of PBST (0.1% Tween-20 in PBS). […] The final reaction solution volume was fixed to 80 μl with Millipore-filtered water. To this was added the following: a ubiquitin agent inhibitor in 10 μl of DMSO, 10 μl of E1 and His-E2 Ubch10 in 20 mM Tris buffer, pH 7.5, and 5% glycerol so that there was 10 ng/well of E1 and 20 ng/well of His-E2 Ubch10. […]
After 1 hour, the wells were washed three times with 200 μl of PBST and the amount of E2-ubiquitin complex was measured. […] The luminescence of each well was then measured using a […] to calculate the amount of E2-ubiquitin complex. […]
The table below illustrates the ATP competitive inhibition properties of the pharmaceutical compositions of the invention comprising the compounds listed in the table using the ATP competitive assay described above. Inhibition was measured using IC50 values.

E1 and His-E2 Ubch10 = molecular target: T2, E1 and His-E2 Ubch10 (Homo sapiens, UniProt P22314); assay: E1 to E2 transfer assay, His-E2 Ubch10, 1.0 μM ATP (low ATP); assay type: biochemical; conditions: Table 5, ATP inhibition properties; inhibition measured using IC50 values
T2 construct: host or cells: E. coli (His-Ubch10); Sf9 insect cells (E1)
T2 sequence (P22314 1-1058): T1 sequence (P22314 1-1058)
How it was run: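 His-Ubch10 (20 ng/well), E1 (10 ng/well) and Flag-ubiquitin (100 ng) reacted 1 h at room temperature on nickel plates in 62.5 mM Tris pH 7.5, 0.75 mM DTT, 1.0 μM ATP with inhibitor. E2-ubiquitin complex detected by anti-Flag/HRP luminescence; IC50 determined.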

Structure (SMILES) | Results [1] | UBC10 (E1 and His-E2 Ubch10)
COc1ccc2nc(NC(=O)c3ccc(C)cc3)sc2c1 [Compound 3, N-(6-methoxy-1,3-benzothiazoi-2-yl)-4-methylbenzamide] | ATP competitve | –
COc1ccc2sc(NC(=O)c3ccc4c(c3)OCCO4)nc2c1 [Compound 14, N-(5-methoxy-1,3-benzothiazol-2-yl)-2,3-dihydro-1,4-benzodioxine-6-carboxamide] | ATP competitve | –
CN(C)c1ccccc1C(=O)Nc1nc2ccccc2s1 [Compound 223, N-(benzo[d]thiazol-2-yl)-2-(dimethylamino)benzamide] | – | −− (−− indicates marginal or no inhibition detected with this assay)
O=C(Nc1nc2ccccc2s1)[C@H]1CCN1 [Compound 224, (R)-N-(benzo[d]thiazol-2-yl)azetidine-2-carboxamide] | – | −− (−− indicates marginal or no inhibition detected with this assay)
O=C(Nc1nc2ccccc2s1)C1CCNCC1 [Compound 225, N-(benzo[d]thiazol-2-yl)piperidine-4-carboxamide] | – | −− (−− indicates marginal or no inhibition detected with this assay)

Source: US20080039629A1, “Benzothniazole compositions and their use as ubiquition ligation inhibitors” (RIGEL PHARMACEUTICALS, INC., priority 2003, published 2008)
